The values that follow come from patent US20220226484A1, “THERAPEUTIC PEPTIDES” (COHBAR, INC., priority 2019, published 2022).

Positions of bridges follow the written chain, without caps; N, C: chain ends. Non-standard residues stand in square brackets, D forms with d. Primed or numbered codes have the meaning given here. Chains are numbered I, II in the order given. No end group written: not given here. PEG12′ = not defined here

Holding throughout (type): cell-based
For experiment [1], the system named is C2C12 Mouse Myoblasts. Put plainly: Glucose utilization. To be noted: metformin 1 mM. How it is done:
The effect of the peptides on glucose metabolism can be assessed using an assay of glucose utilization in cultured cultured cells such as mouse myoblasts. Peptides were initially prepared as 10 mM stock in DMSO and used at a final concentration of 10 μM (0.1% DMSO). C2C12 mouse myoblast cell line was purchased from American Type Culture Collection (Manassas, Va.). C2C12 cultures were maintained at 37° C. in a humidified atmosphere of 5% CO2/95% air with medium changes every second day. C2C12 cells were grown in DMEM (1 g/L glucose) supplemented with 10% FBS with 100 IU/ml penicillin and 100 μg/ml streptomycin. C2C12 cells were seeded at 7,000 cells per well on 96-well plates and cultured to confluence. Once the cell reached confluence the media was changed to DMEM (1 g/L glucose) supplemented with 2% HS with 100 IU/ml penicillin and 100 μg/ml streptomycin and maintained at 37° C. in a humidified atmosphere of 5% CO2/95% air. 5 days post-induction of differentiation fresh DMEM (1 g/L glucose) supplemented with 2% HS with 100 IU/ml penicillin and 100 μg/ml streptomycin was added to cultures. Cells were maintained at 37° C. in a humidified atmosphere of 5% CO2 and 95% air for 5 hours. After 5 hours test peptides at 10 μM or controls (0.5 mM or 1 mM metformin in 1% DMSO) prepared in fresh differentiation medium were added to cells and the cultures were maintained at 37° C. in a humidified atmosphere of 5% CO2/95% air for 18-22 hours. At the end of the incubation culture media was removed from the cells and the remaining glucose concentration was measured using a Glucose Assay kit (Abcam) according to the manufacturer's instructions, using a Cytation 3 plate reader at 570 nm (BioTek, Winooski, Vt.). Glucose concentrations in the medium were calculated relative to 0.1% DMSO treated control cells. The relative standard deviation of the result for the 0.1% DMSO treated control was <20%. Metformin was used as a positive control for reduction of glucose levels (increased glucose utilization glucose levels for treatment with metformin (1 mM) treatment were <20% of the 0.1% DMSO treated control value. The results are reported in Table 7.

Experiment [2] concerns 3T3-L1 Mouse Adipocytes. Description: Insulin-dependent effect on free fatty acid levels in cultured mouse adipocytes. To be noted: 3 hours; for Free Fatty Acid Levels, MEAN % ISO, +Insulin: peptide 10 μM + insulin 0.25 nM, percent of isoproterenol (0.1 nM)+insulin (0.25 nM); for Free Fatty Acid Levels, MEAN % ISO, −Insulin: peptide 10 μM alone, percent of isoproterenol (0.1 nM) treated control cells. How it is done:
The effect of the peptides on fatty acid metabolism was assessed in the absence and presence of insulin using an assay of free fatty acid levels in cultured cells such as mouse adipocytes. Peptides were initially prepared as 10 mM stock in DMSO and used at a final concentration of 10 μM (0.1% DMSO). […] Insulin (0.25 nM) was used as a partial inhibitor and insulin (10 nM) was used as a potent inhibitor of isoproterenol stimulated fatty acid production. Mouse 3T3-L1 cells purchased from ZenBio (Research Triangle Park, N.C.) were seeded at 3,000 cells per well on 96-well plates in Pre-Adipocyte Medium (Zen-Bio) and grown to confluence at 37° C. in a humidified atmosphere of 5% CO2/95% air. Two days after confluence, cells were placed in Adipocyte Differentiation Medium (Zen-Bio) and cultured for three additional days at 37° C. in a humidified atmosphere of 5% CO2/95% air. The culture medium was then partially replaced with Adipocyte Maintenance Medium (Zen-Bio) and the cells maintained at 37° C. in a humidified atmosphere of 5% CO2/95% air with partial medium replacement every other day. At 12 day of differentiation, 96-well cultures were transferred to Adipocyte Maintenance Medium without insulin and placed at 37° C. in a humidified atmosphere of 5% CO2/95% air for two days. Following this incubation period, the medium was removed from 14 day differentiated cultures and replaced with Assay Buffer (Zen-Bio) containing peptides (10 μM), insulin (0.25 nM or 10 nM), isoproterenol (0.1 nM) as appropriate. […] isoproterenol was added to all wells except untreated controls. Insulin at 0.1 nM and 10 nM was added to control wells. Peptides (10 μM) in the absence or presence of insulin (0.25 nM) were added to test wells. Cells in the presence of compounds were placed at 37° C. in a humidified atmosphere of 5% CO2/95% air for 3 hours. At the end of the final 3 h incubation, conditioned assay buffer was removed from each well and place in a fresh 96-well plate for quantitation of free fatty acid content. Free fatty acid concentrations in the assay buffer samples were determined using a Free Fatty Acid Assay kit (Zen-Bio) according to the manufacturer's instructions using a Cytation 3 plate reader at 540 nm (BioTek, Winooski, VD. Absorbance values were corrected for untreated background and expressed as a percent of isoproterenol (0.1 nM) treated control cells for peptides alone or isoproterenol (0.1 nM)+insulin (0.25 nM) for peptides in presence of insulin (0.25 nM). Treatment with isoproterenol […] alone was used as the free fatty acid level stimulatory control. The relative standard deviation of the isoproterenol control was <10%. […] Free fatty acid levels for insulin (10 nM) treatment were <5% of the isoproterenol control value. Free fatty acid levels for insulin (0.25 nM) treatment were 60-80% of the isoproterenol control value.

For experiment [3], the system named is H4IIE Rat Hepatoma Cells. Description: Insulin-dependent effect on glucose production by cultured rat liver cells. Particulars: 24 hour; for Glucose Levels, MEAN % Control, +Insulin: peptide 10 μM + insulin 800 pM, percent of insulin (800 pM); for Glucose Levels, MEAN % Control, −Insulin: peptide 10 μM alone, percent of untreated control cells. How it is done: The effect of the peptides on glucose production was assessed in the absence and presence of insulin using an assay of glucose levels in cultured cells such as rat hepatocytes. Peptides were initially prepared as 10 mM stock in DMSO and used at a final concentration of 10 μM (0.1% DMSO). Insulin (800 pM) was used as a partial inhibitor of glucose production. H4-IIE cells purchased from ATCC (Manassas, Va.) were seeded at 100,000 cells/well in standard medium (DMEM/high glucose+10% FBS+1× Glutamax+antibiotics) on 96-well plates and allowed to adhere overnight at 37° C. in a humidified atmosphere of 5% CO2/95% air. Approximately 24 h after seeding, the medium was removed, cells rinsed with glucose free DMEM, and Glucose Production Medium (glucose free DMEM+2 mM sodium pyruvate+10 mM sodium lactate) was added. The cultures were placed at 37° C. in a humidified atmosphere of 5% CO2/95% air overnight. The next morning, the medium was removed and fresh Glucose Production Medium containing compounds was added. Insulin at 800 pM was added to control wells. Peptides (10 μM) in the absence or presence of insulin (800 pM) were added to test wells. Cells in the presence of compounds were placed at 37° C. in a humidified atmosphere of 5% CO2/95% air overnight. After 24 hour incubation, conditioned medium from each well was transferred to a fresh 96-well plate for quantitation of glucose content. Quantitation of glucose levels was determined using an Amplex Red Glucose Assay kit (Abacm; Cambridge, Mass.) according to the manufacturer's instructions using a Cytation 3 plate reader at 570 nm (BioTek, Winooski, Vt.). Absorbance values were expressed as a percent of untreated control cells (maximum glucose production) for peptide alone samples or insulin (800 pM) for peptides in the presence of insulin (800 pM. Glucose levels for insulin (800 pM) treatment were ˜80-90% of the untreated control values. The results are reported in Table 15.

The subject of experiment [4] is WI-38 cells (human fetal lung fibroblast cells). Put plainly: Fibroblast-to-myofibroblast transition assay, pro-collagen I alpha 1 expression. To be noted: 10 μM peptide and 5 ng/ml TGF-β, 48 h, cell lysates. How it is done: The effect of the peptides on fibrosis can be assessed in vitro using a fibroblast-to-myofibroblast transition (FMT) assay and monitoring pro-collagen I alpha 1 expression produced by cultured cells such as human fetal lung fibroblast cells. Peptides were initially prepared as 10 mM stock solutions in DMSO or 1 mM stock in H2O and were used at a final concentration of 10 μM (0-0.1% DMSO). Transforming Growth Factor beta (TGF-β) was used as a potent inducer of FMT as measured by increased pro-collagen I alpha 1 expression. Human WI-38 cell line was purchased from American Type Culture Collection (Manassas, Va.). WI-38 cells were seeded in complete medium (DMEM/high glucose (4 g/L)+10% Fetal Bovine Serum+1% penicillin/streptomycin) at 40,000 cells/well on 48-well plates and placed at 37° C. in a humidified atmosphere of 5% CO2/95% air. The next day, the medium was removed, cells were rinsed twice with HBSS, and the medium replaced with Serum Restricted Medium (DMEM/high glucose (4 g/L)+0.2% Fetal Bovine Serum+1% penicillin/streptomycin). The cultures were placed at 37° C. in a humidified atmosphere of 5% CO2/95% air overnight. Following 24 h in Serum Restricted Medium, the medium was removed, and the following was added: fresh Serum Restricted Medium alone (no TGF-β control); fresh Serum Restricted Medium containing 5 ng/ml TGF-β (TGF-β control); or fresh Serum Restricted Medium containing 10 μM peptide and 5 ng/ml TGF-β. Cells were incubated for 48 h at 37° C. in a humidified atmosphere of 5% CO2/95% air, washed twice with cold HBSS and immediately lysed. Lysis and determination of pro-collagen I alpha 1 concentrations in the cell lysates were performed using a Pro-Collagen I Alpha 1 ELISA kit (Abcam; Cambridge, Mass.) according to the manufacturer's instructions; absorbance was measured using a Cytation 3 plate reader at 450 nm (BioTek, Winooski, Vt.).

Experiment [5] relates to Rat primary cortical neurons. Description: Neuroprotection against Aβ (1-42) toxicity in cultured neurons. Particulars: Aβ (1-42) 20 μM + BDNF 50 ng/mL, 24 hours.
Protocol: Rat primary cortical neurons were collected and cultured by methods well known in the art (Singer et al., 1999 and Callizot et al., 2013). The cells were seeded at a density of 25,000 per well in 96-well plates precoated with poly-L-lysine and cultured at 37° C. in an air (95%)-CO2 (5%) incubator. The medium was changed every 2 days. The cortical neurons were treated after 11 days of culture. The A13(1-42) was prepared using the procedure described by Callizot et al., 2013 to ensure monomeric peptide. Compounds and the positive control, BDNF (50 ng/ml), were dissolved in culture medium and then pre-incubated with primary cortical neurons for 1 hour before addition of A13(1-42) (20 μM). After 24 hours of treatment, the cell culture supernatant was removed and the cortical neurons were fixed by a cold solution of ethanol (95%) and acetic acid (5%) for 5 min at −20° C. After permeabilization with 0.1% of saponin, cells were incubated for 2 hours with mouse monoclonal antibody anti-microtubule-associated-protein 2 (MAP-2) at a dilution of 1/400 in PBS containing 1% fetal calf serum and 0.1% of saponin to stain cell bodies and neurites.
This antibody was detected with Alexa Fluor 488 goat anti-mouse IgG at the dilution 1/400 in PBS containing 1% FCS, 0.1% saponin, for 1 hour at room temperature. For each condition, images were obtained using ImageXpress (Molecular Devices) with 20× magnification. The total number of cells and extent of neurite network was determined using Custom Module Editor (Molecular Devices).

As to `CN(C)C(=N)N=C(N)N` [metformin, reference compound], the “glucose levels, % of the 0.1% DMSO treated control value” in experiment [1] is given as less than 20%.

For the molecule “RVIRMCLNVGLLGEL(dA)G [SEQ ID NO: 27] (chain 1 RVIRMCLNVGLLGEL[dA]G; chain 2 RVIRMCLNVGLLGEL[dA]G; disulfide I:6-II:6)”, in experiment [2] (listed as 27), the “Free Fatty Acid Levels, MEAN % ISO, +Insulin” value is 28.2% and the “Free Fatty Acid Levels, MEAN % ISO, −Insulin” value is 94.5%. For the same molecule, in experiment [3] (listed as 27), the “Glucose Levels, MEAN % Control, +Insulin” value is on record as 54.3% and the “Glucose Levels, MEAN % Control, −Insulin” value stood at 108%. Also, the “Procollagen I Alpha 1 Mean (SEM)” value in experiment [4] was 4120 (677) pg/mL.

As for “RVIRMCLNVGLNGEL(dA)E (RVIRMCLNVGLNGEL[dA]E) [SEQ ID NO: 20]”, in experiment [2], the “Free Fatty Acid Levels, MEAN % ISO, +Insulin” value is 97.5% and the “Free Fatty Acid Levels, MEAN % ISO, −Insulin” value is given as 102%. In experiment [3], the “Glucose Levels, MEAN % Control, +Insulin” value was 75.1% and the “Glucose Levels, MEAN % Control, −Insulin” value is given as 110%. Moreover, the “Procollagen I Alpha 1 Mean (SEM)” value in experiment [4] is given as 4680 (377) pg/mL.

As for “{PEG12}KRVIRMCLGVGLLGDLAG ([PEG12′]KRVIRMCLGVGLLGDLAG) [SEQ ID NO: 16]”, in experiment [2], the “Free Fatty Acid Levels, MEAN % ISO, +Insulin” value was 33.4% and the “Free Fatty Acid Levels, MEAN % ISO, −Insulin” value is 54.6%. In addition, in experiment [3], the “Glucose Levels, MEAN % Control, +Insulin” value came out at 79.8% and the “Glucose Levels, MEAN % Control, −Insulin” value worked out at 104%. Moreover, in experiment [4], the “Procollagen I Alpha 1 Mean (SEM)” value was 3980 (569) pg/mL.

B1: BDNF: positive control, BDNF (50 ng/ml) (protein, UniProt P23560 19-247, looked up)
Neurotrophic factor BDNF …: APMKEANIRGQGGLAYPGVRTHGTLESVNGPKAGSRGLTSLADTFEHVIEELLDEDQKVRPNEENNKDADLYTSRVMLSSQVPLEPPLLFLLEEYKNYLDAANMSMRVRRHSDPARRGELSVCDSISEWVTAADKKTAVDMSGGTVTVLEKVPVSKGQLKQYFYETKCNPMGYTKEGCRGIDKRHWNSQCRTTQSYVRALTMDSKKRIGWRFIRIDTSCVCTLTIKRGR
As to B1, in experiment [5], the “Percent Protection of Neuronal Network” value is given as 95% and the “Percent Survival of Neurons” value was 98%.
